Experimental data from US10495796B2, “Near-infrared cut filter” (AGC INC., priority 2012, dated 2019).
One block for each compound: values may come before it.

Key:
[1] = Absorption characteristics: transmission spectrum of near-infrared absorbing layer of NIR filter (UV-visible spectrophotometer); assay type: physicochemical
Procedure: Further, the transmittance of the near-infrared absorbing layer can be measured by using an ultraviolet visible light spectrophotometer. For example, when the near-infrared absorbing layer is provided on a glass substrate, the transmittance is calculated by subtracting the transmittance of only the glass substrate. Note that the transmittance of light of the near-infrared absorbing layer refers to, unless otherwise stated, a ratio to light incident from a direction orthogonal to a main surface of a sample, the ratio of this light traveling straight inside the sample and transmitted to an opposite side. Further, when the transmittance is measured by making light incident from a direction other than the direction orthogonal to the main surface of the sample in the measurement of transmittance of light, an angle made by a straight line indicating the direction of the incident light to a line orthogonal to the main surface is called an incident angle.
In the condition (ii-3), the value calculated by nd(B)×(λa−λc) (hereinafter, this value may also be described as “Is value”) is a value to be an index indicating steepness of the absorption curve in the vicinity of the boundary between the visible light region and the near-infrared region with respect to a transmission spectrum of the near-infrared absorbing layer. When this value is 115 or less, the absorption curve in the vicinity of the boundary between the visible light region and the near-infrared region is steep with respect to the near-infrared absorbing layer, which can be said as preferable for the NIR filter.
That is, with respect to the transmission spectrum of the near-infrared absorbing layer, the smaller the difference (λa−λc) between the shortest wavelength λa with transmittance of 1% in the region of 650 nm to 800 nm and the wavelength λc with transmittance of 70% on a shorter wavelength side than the λa, the steeper the absorption curve in the vicinity of the boundary between the visible light region and the near-infrared region. Here, λa−λc also depends on a wavelength width having transmittance of 1% or less (λb−λa; λb is the longest wavelength with transmittance of 1% in the wavelength region of 650 nm to 800 nm). Accordingly, in order to compare and evaluate the steepness of the absorption curve in the above region of the transmission spectrum of the near-infrared absorbing layer, λb−λa is fixed to 30 nm. That is, λb−λa of the near-infrared absorbing layer which the present filter has is not limited to 30 nm.
Further, in the Is value, (λa−λc) is multiplied by the refractive index nd(B) of the transparent resin (B) contained in the near-infrared absorbing layer as a coefficient. This is to standardize the difference in steepness among resins.
Regarding transmittance (%/nm) of the NIR filters 1 to 109 obtained above, transmission spectra were measured and calculated by using an ultraviolet visible light spectrophotometer (U-4100 type spectrophotometer made by Hitachi High-Technologies Corporation). Analysis results of transmission spectra of the near-infrared absorbing layers which the NIR filters have are presented in Table 4, Table 5 and Table 6 for the NIR filters 1 to 25, 26 to 51, 52 to 75, respectively, and are presented in Table 7 and Table 8 for the NIR filters 76 to 94, 95 to 109, respectively. In Table 4 to Table 8, the ratios (parts by mass) of dyes to 100 parts by mass of the transparent resin (B) and film thicknesses of the near-infrared absorbing layers are described together.
Further, conditions of preferred transmission spectra of the near-infrared absorbing layers in the present filter and Is values obtained by the formula: nd(B)×(λa-λc) described in above (ii-3) are described in Table 4 to Table 8 together with λa in the condition (ii-1) and λb-λa in the condition (ii-2). Note that values described in Table 4 to Table 8 are values obtained by subtracting transmittance of a glass plate from transmittance of an NIR filter. […]

[2] = Solubility of dye to organic solvent; assay type: physicochemical; conditions: 50° C., mass % of the dye to the mass of the entire solution; for Solubility to organic solvent: MIBK: methyl isobutyl ketone
Procedure: Regarding the dyes (A11-1) to (A11-10) and (A11-20) to (A11-27) obtained above, solubility to organic solvent was evaluated as follows.
Three kinds of solvents, cyclohexanone, methyl isobutyl ketone (MIBK), toluene, were used as the organic solvent in the solubility test. Note that in Table 3, % is mass % of the dye to the mass of the entire solution. Further, the temperature of each organic solvent in the solubility test was 50° C.

[3] = transparent resin acrylic resin BR50, nd(B) 1.56, film thickness 2.3 μm
[4] = transparent resin polycarbonate EP5000, nd(B) 1.63, film thickness 2.4 μm
[5] = transparent resin polycarbonate SP1516, nd(B) 1.60, film thickness 0.9 μm
[6] = transparent resin polycarbonate SP3810, nd(B) 1.63, film thickness 1.0 μm
[7] = transparent resin polycarbonate SP3810, nd(B) 1.63, film thickness 2.8 μm

SMILES: CCCCC(CC)C(=O)Nc1cc2c(cc1C1=C([O-])C(=c3cc4c(cc3NC(=O)C(CC)CCCC)=[N+](CC)C(C)C4(C)C)C1=O)C(C)(C)C(C)N2CC (centres unmarked) [Example A11-5]
Solubility to organic solvent: Cyclohexanone [2]: 10%< mass %
Solubility to organic solvent: MIBK [2]: 10%< mass %
Solubility to organic solvent: Toluene [2]: 10%< mass %

SMILES: CC(C)C(=O)Nc1cc2c(cc1C1=C([O-])C(=c3cc4c(cc3NC(=O)C(C)C)=[N+](C)C(C)C4(C)C)C1=O)C(C)(C)C(C)N2C (centres unmarked) [Example A11-26, reference compound]
Solubility to organic solvent: Cyclohexanone [2]: <1.0% mass %
Solubility to organic solvent: MIBK [2]: <1.0% mass %
Solubility to organic solvent: Toluene [2]: <1.0% mass %

SMILES: CCCC(=O)Nc1cc2c(cc1C1=C([O-])C(=c3cc4c(cc3NC(=O)CCC)=[N+](C)C(C)C4(C)C)C1=O)C(C)(C)C(C)N2C (centres unmarked) [Example A11-21, reference compound]
Solubility to organic solvent: Cyclohexanone [2]: <1.0% mass %
Solubility to organic solvent: MIBK [2]: <1.0% mass %
Solubility to organic solvent: Toluene [2]: <1.0% mass %

SMILES: CCCC(C)C(=O)Nc1cc2c(cc1C1=C([O-])C(=c3cc4c(cc3NC(=O)C(C)CCC)=[N+](C)C(C)C4(C)C)C1=O)C(C)(C)C(C)N2C (centres unmarked) [Example A11-10]
Solubility to organic solvent: Cyclohexanone [2]: 10%< mass %
Solubility to organic solvent: MIBK [2]: 1.00% mass %
Solubility to organic solvent: Toluene [2]: 3.00% mass %

SMILES: CCCCCCC(=O)Nc1cc2c(cc1C1=C([O-])C(=c3cc4c(cc3NC(=O)CCCCCC)=[N+](C)C(C)C4(C)C)C1=O)C(C)(C)C(C)N2C (centres unmarked) [Example A11-23, reference compound]
Solubility to organic solvent: Cyclohexanone [2]: 2.50% mass %
Solubility to organic solvent: MIBK [2]: <1.0% mass %
Solubility to organic solvent: Toluene [2]: 2.50% mass %

SMILES: CCCCC(CC)C(=O)Nc1cc2c(cc1C1=C([O-])C(=c3cc4c(cc3NC(=O)C(CC)CCCC)=[N+](CCC)C(C)C4(C)C)C1=O)C(C)(C)C(C)N2CCC (centres unmarked) [Example A11-6]
Solubility to organic solvent: Cyclohexanone [2]: 10%< mass %
Solubility to organic solvent: MIBK [2]: 10%< mass %
Solubility to organic solvent: Toluene [2]: 10%< mass %

SMILES: CCCCCCCCCC(CCCCCCC)C(=O)Nc1cc2c(cc1C1=C([O-])C(=c3cc4c(cc3NC(=O)C(CCCCCCC)CCCCCCCCC)=[N+](C)C(C)C4(C)C)C1=O)C(C)(C)C(C)N2C (centres unmarked) [Example A11-3]
Solubility to organic solvent: Cyclohexanone [2]: 10%< mass %
Solubility to organic solvent: MIBK [2]: 10%< mass %
Solubility to organic solvent: Toluene [2]: 10%< mass %

Next, values leading:

430 nm to 600 nm Average transmittance [1, 3]: 93.1%
Is value (nd(B)×(λa-λc)) [1, 3]: 142.1
λa [1, 3]: 687 nm
λa − λc [1, 3]: 91 nm
λb [1, 3]: 717 nm
λb − λa [1, 3]: 30 nm
λc [1, 3]: 596 nm
λmax [1, 3]: 704 nm
430 nm to 600 nm Average transmittance [1, 4]: 95.6%
Is value (nd(B)×(λa-λc)) [1, 4]: 122.4
λa [1, 4]: 693 nm
λa − λc [1, 4]: 68 nm
λb [1, 4]: 723 nm
λb − λa [1, 4]: 30 nm
λc [1, 4]: 618 nm
λmax [1, 4]: 710 nm
430 nm to 600 nm Average transmittance [1, 5]: 94.5%
Is value (nd(B)×(λa-λc)) [1, 5]: 126.4
λa [1, 5]: 690 nm
λa − λc [1, 5]: 79 nm
λb [1, 5]: 720 nm
λb − λa [1, 5]: 30 nm
λc [1, 5]: 611 nm
λmax [1, 5]: 706 nm
430 nm to 600 nm Average transmittance [1, 6]: 93.6%
Is value (nd(B)×(λa-λc)) [1, 6]: 129.1
λa [1, 6]: 693 nm
λa − λc [1, 6]: 79 nm
λb [1, 6]: 723 nm
λb − λa [1, 6]: 30 nm
λc [1, 6]: 614 nm
λmax [1, 6]: 710 nm
430 nm to 600 nm Average transmittance [1, 7]: 95.0%
Is value (nd(B)×(λa-λc)) [1, 7]: 124.2
λa [1, 7]: 694 nm
λa − λc [1, 7]: 76 nm
λb [1, 7]: 724 nm
λb − λa [1, 7]: 30 nm
λc [1, 7]: 618 nm
λmax [1, 7]: 710 nm
Solubility to organic solvent: Cyclohexanone [2]: <1.0% mass %
Solubility to organic solvent: MIBK [2]: <1.0% mass %
Solubility to organic solvent: Toluene [2]: <1.0% mass %
SMILES: CC(=O)Nc1cc2c(cc1C1=C([O-])C(=c3cc4c(cc3NC(C)=O)=[N+](C)C(C)C4(C)C)C1=O)C(C)(C)C(C)N2C (centres unmarked) [Example A11-20, reference compound]

430 nm to 600 nm Average transmittance [1, 3]: 94.8%
Is value (nd(B)×(λa-λc)) [1, 3]: 110.9
λa [1, 3]: 683 nm
λa − λc [1, 3]: 71 nm
λb [1, 3]: 713 nm
λb − λa [1, 3]: 30 nm
λc [1, 3]: 612 nm
λmax [1, 3]: 700 nm
430 nm to 600 nm Average transmittance [1, 4]: 96.1%
Is value (nd(B)×(λa-λc)) [1, 4]: 111.0
λa [1, 4]: 689 nm
λa − λc [1, 4]: 68 nm
λb [1, 4]: 719 nm
λb − λa [1, 4]: 30 nm
λc [1, 4]: 621 nm
λmax [1, 4]: 705 nm
430 nm to 600 nm Average transmittance [1, 6]: 97.3%
Is value (nd(B)×(λa-λc)) [1, 6]: 112.8
λa [1, 6]: 689 nm
λa − λc [1, 6]: 69 nm
λb [1, 6]: 719 nm
λb − λa [1, 6]: 30 nm
λc [1, 6]: 620 nm
λmax [1, 6]: 700 nm
430 nm to 600 nm Average transmittance [1, 7]: 95.1%
Is value (nd(B)×(λa-λc)) [1, 7]: 112.8
λa [1, 7]: 689 nm
λa − λc [1, 7]: 69 nm
λb [1, 7]: 719 nm
λb − λa [1, 7]: 30 nm
λc [1, 7]: 620 nm
λmax [1, 7]: 705 nm
SMILES: Cc1ccc(C)c(OCCCC(C)(C)C(=O)Nc2cc3c(cc2C2=C([O-])C(=c4cc5c(cc4NC(=O)C(C)(C)CCCOc4cc(C)ccc4C)=[N+](C)C(C)C5(C)C)C2=O)C(C)(C)C(C)N3C)c1 (centres unmarked) [Example A11-13]

Solubility to organic solvent: Cyclohexanone [2]: 10%< mass %
Solubility to organic solvent: MIBK [2]: 10%< mass %
Solubility to organic solvent: Toluene [2]: 10%< mass %
SMILES: CCN1c2cc(NC(=O)C(C)(C)CCCOc3cc(C)ccc3C)c(C3=C([O-])C(=c4cc5c(cc4NC(=O)C(C)(C)CCCOc4cc(C)ccc4C)=[N+](CC)C(C)C5(C)C)C3=O)cc2C(C)(C)C1C (centres unmarked) [Example A11-8]

430 nm to 600 nm Average transmittance [1, 3]: 94.7%
Is value (nd(B)×(λa-λc)) [1, 3]: 110.9
λa [1, 3]: 684 nm
λa − λc [1, 3]: 71 nm
λb [1, 3]: 714 nm
λb − λa [1, 3]: 30 nm
λc [1, 3]: 613 nm
λmax [1, 3]: 700 nm
430 nm to 600 nm Average transmittance [1, 4]: 95.5%
Is value (nd(B)×(λa-λc)) [1, 4]: 112.6
λa [1, 4]: 689 nm
λa − λc [1, 4]: 69 nm
λb [1, 4]: 719 nm
λb − λa [1, 4]: 30 nm
λc [1, 4]: 620 nm
λmax [1, 4]: 705 nm
430 nm to 600 nm Average transmittance [1, 6]: 97.1%
Is value (nd(B)×(λa-λc)) [1, 6]: 112.8
λa [1, 6]: 689 nm
λa − λc [1, 6]: 69 nm
λb [1, 6]: 719 nm
λb − λa [1, 6]: 30 nm
λc [1, 6]: 620 nm
λmax [1, 6]: 700 nm
430 nm to 600 nm Average transmittance [1, 7]: 95.6%
Is value (nd(B)×(λa-λc)) [1, 7]: 111.2
λa [1, 7]: 689 nm
λa − λc [1, 7]: 68 nm
λb [1, 7]: 719 nm
λb − λa [1, 7]: 30 nm
λc [1, 7]: 621 nm
λmax [1, 7]: 705 nm
SMILES: CCCC(C)(C)C(=O)Nc1cc2c(cc1C1=C([O-])C(=c3cc4c(cc3NC(=O)C(C)(C)CCC)=[N+](C)C(C)C4(C)C)C1=O)C(C)(C)C(C)N2C (centres unmarked) [Example A11-14]
